Test results as given in patent publication US20240002332A1, “Small Molecule Inhibitors of SARS-CoV-2 Infections” (priority 2020, published 2024).
Where “and” joins values, the source holds several entries; their conditions need not be identical. Identical values can stand only once. Like-named read-outs stand apart in the source and are kept apart here.

Assays:
[1] = Kinetic solubility (Tier I ADME); details: kinetic from dmso stock
[2] = Tolerability study in mice, 7 days QD, PK on the 7th day; details: 25, 50 and 100 mg/kg PO QD 7 days, C57BL/6J mice
[3] = Parallel artificial membrane permeability assay (PAMPA); details: PAMPA, pH 5
[4] = Rat liver microsomal (RLM) stability; details: rat, microsomes
[5] = test system: SARS-CoV-2; details: EIDD-2801 250 mpk BID; Compound P3 60 mpk BID
[6] = Pharmacokinetics in mice IV 3 and PO 10 mg/kg; plasma, lung and liver
[7] = Compound P3 in plasma, PO 50 mg/kg (PO_A), C57BL/6 mice, individual mice, 50 mg/kg
[8] = Compound P3 in plasma, PO 100 mg/kg (PO_B), C57BL/6 mice, individual mice, 100 mg/kg
[9] = mice, Compound P3 dosed PO 10 mg/kg, Liver
[10] = mice, Compound P3 dosed PO 10 mg/kg, Lung
[11] = mice, Compound P3 dosed PO 10 mg/kg, Plasma
[12] = mouse Plasma, Compound P3 dosed IV 3 mg/kg
[13] = mouse Plasma, Compound P3 dosed PO 10 mg/kg

O=C(Nc1ccc([N+](=O)[O-])cc1Cl)c1cc(Cl)ccc1OC(=O)N1CCNCC1 [Compound P3, 4-chloro-2-((2-chloro-4-nitrophenyl)carbamoyl)phenyl piperazine-1-carboxylate]
AUC_% Extrap (Compound P3 in plasma, PO 50 mg/kg (PO_A), C57BL/6 mice, Mean n = 3): 33.5%
AUClast [7]: 12.332 µg·h/mL and 10.489 µg·h/mL
Cmax [7]: 1.92 µg/mL and 1.56 µg/mL
Tmax [7]: 0.500 h
t1/2 [7]: 3.70 h
AUC_% Extrap (Compound P3 in plasma, PO 100 mg/kg (PO_B), C57BL/6 mice, Mean n = 3): 28.2%
AUCInf [8]: 33.619 µg·h/mL and 24.577 µg·h/mL and 56.087 µg·h/mL
AUC_% Extrap [8]: 22.7% and 23.7% and 38.3%
AUClast [8]: 18.757 µg·h/mL and 34.617 µg·h/mL
Cmax [8]: 2.34 µg/mL and 3.88 µg/mL
t1/2 [8]: 13.8 h and 19.8 h
in vivo conversion to niclosamide (Compound P3 oral, mice): effectively converted in vivo to the active niclosamide
plasma exposure of niclosamide vs that reported for oral niclosamide (oral Compound P3, mice): much improved plasma exposures of niclosamide
solubility [1]: > 0.043 mg/mL
body weight [2]: no dose dependent weight loss
tolerability [2]: tolerable for the study period, with no gross findings
Papp [3]: 5000 nm/s
half-life [4]: > 0.5 h
IHC immunoreactivity staining in the right lung [5]: lowered in severity
clearance ([6]; mice): moderate
AUC0-INF/D [6, 9]: 65.7 kg·ng·h/mL/mg
AUC_% Extrap [6, 9]: 0.9%
Cmax/D [6, 9]: 24 kg·ng/mL/mg
AUC0-INF/D [6, 10]: 24400 kg·ng·h/mL/mg
AUC_% Extrap [6, 10]: 0.2%
Cmax/D [6, 10]: 4420 kg·ng/mL/mg
Tmax [6, 10]: 1.5 h
t1/2 [6, 10]: 2.8 h
AUC0-INF [6, 11]: 3.53 µg·h/mL
AUC0-INF/D [6, 11]: 353 kg·ng·h/mL/mg
AUC_% Extrap [6, 11]: 0.5%
Cmax [6, 11]: 0.606 µg/mL
Cmax/D [6, 11]: 60.6 kg·ng/mL/mg
AUCINF/D [6, 12]: 426 kg·ng·h/mL/mg
AUCLast/D [6, 12]: 425 kg·ng·h/mL/mg
AUC_%Extrap_obs [6, 12]: 0.06%
Clast [6, 12]: 0.000163 µg/mL
Cmax/D [6, 12]: 154 kg·ng/mL/mg
Tlast [6, 12]: 48 h
AUCINF/D [6, 13]: 353 kg·ng·h/mL/mg
AUCINF_obs [6, 13]: 3.53 µg·h/mL
AUCLast/D [6, 13]: 351 kg·ng·h/mL/mg
AUC_%Extrap_obs [6, 13]: 0.5%
Clast [6, 13]: 0.00523 µg/mL
Cmax/D [6, 13]: 60.6 kg·ng/mL/mg
F [6, 13]: 83%
Tlast [6, 13]: 30 h
bioavailability ([6]; mouse, in vivo, 10 mg/kg): 83%
C0 ([6]; mouse, in vivo, iv, 3 mg/kg): 0.536 µg/mL
Tmax ([6]; mouse, in vivo, iv, 3 mg/kg): 0.083 h
Vd ([6]; mouse, in vivo, iv, 3 mg/kg): 8.9 L/kg
clearance ([6]; mouse, in vivo, iv, 3 mg/kg): 2.34 L/h/kg
AUC(0-inf) ([6]; mouse, in vivo, iv, 3 mg/kg, AUCINF_obs, mouse Plasma, Compound P3 dosed IV 3 mg/kg): 1.28 µg·h/mL
AUC(0-t) ([6]; mouse, in vivo, iv, 3 mg/kg, AUClast, mouse Plasma, Compound P3 dosed IV 3 mg/kg): 1.28 µg·h/mL
Cmax ([6]; mouse, in vivo, iv, 3 mg/kg, Cmax, mouse Plasma, Compound P3 dosed IV 3 mg/kg): 0.461 µg/mL
half-life ([6]; mouse, in vivo, iv, 3 mg/kg, t½, mouse Plasma, Compound P3 dosed IV 3 mg/kg): 3.3 h
AUC(0-inf) ([6]; mouse, in vivo, po, 10 mg/kg, AUC0-INF, mice, Compound P3 dosed PO 10 mg/kg, Liver): 0.657 µg·h/mL
AUC(0-inf) ([6]; mouse, in vivo, po, 10 mg/kg, AUC0-INF, mice, Compound P3 dosed PO 10 mg/kg, Lung): 244 µg·h/mL
AUC(0-t) ([6]; mouse, in vivo, po, 10 mg/kg, AUC0-last, mice, Compound P3 dosed PO 10 mg/kg, Liver): 0.651 µg·h/mL
